Consider five molecules from patent US20080220444A1, “Bone Marrow Proliferation Assay” (priority 2003, published 2008).

Each structure is given as a SMILES string. pIC50: −log10 of the molar value.

Test [1] has as its system human bone marrow cells. The test is described as follows: Traditional CFU-GM colony-forming assay (myelotoxicity). Type of test: cell-based. How it is done: Bone marrow was enriched after ficoll hypaque density centrifugation. 1×10^5 bone marrow cells per dish, containing METHOCULT GF H4534 (1% methylcellulose, 30% FBS, 1% BSA, 10^-4 M 2-ME, 2 mM L-gln, 50 ng/mL recombinant human (rh) stem cell factor (SCF), 10 ng/mL rh granulocyte/macrophage-colony stimulating factor (GM-CSF), and 10 ng/mL rh interleukin-3 (IL-3). METHOCULT was obtained from StemCell Technologies (Vancouver, BC, Canada). Cultures were treated with various concentrations of test compounds for the entire culture period. Cultures were performed in duplicate and were incubated for ˜14 days at 37° C. in 5% CO2 and scored for colony growth (colony-forming units-granulocyte/macrophage, or CFU-GM) with a phase-contrast inverted microscope. Colonies containing >50 cells were considered positive.

Test [2] concerns human bone marrow cells. The experiment in a line: Bone marrow proliferation assay (3H-thymidine uptake, cytokine-activated cells). The following applies: Bone marrow cell; for pIC50: concentration inhibiting proliferation by 50%. Type of test: cell-based. How it is done:
Bone marrow (BM) was obtained from human donors, collected in Dulbecco's phosphate buffered saline (DPBS) containing 200 units/mL of heparin. The BM cells were then processed as described below. ROSETTESEP™ cocktail was added to the BM cells at a ratio of 50 μL of cocktail per 1 mL of cells in a test tube and the tubes were mixed well by repeated inversion. This mixture was then incubated at room temperature for approximately 20 minutes. A mixture containing PBS/2% FBS/1 mM EDTA was prepared and the BM sample was mixed in a 1:2 ratio (e.g., 10 mL marrow+20 mL PBS/2% FBS/1 mM EDTA) and gently mixed by inversion. […] Cells were counted and viability checked and cells were adjusted to 5×10^5/mL in complete medium containing the following human recombinant growth factors/cytokines at the indicated final concentrations (cytokines may be obtained from various sources; those from StemCell Technologies were used herein): • Stem Cell Factor (50 ng/mL) • GM-CSF (20 ng/mL) • IL-3 (20 ng/mL) • IL-6 (20 ng/mL) • G-CSF (20 ng/mL)
Flat-bottom microtiter tissue culture plates (96 well) were used for the assay. Cells were placed in wells so that each well contained 5×10^4 cells. Typically, cultures were performed in triplicate wells. Wells were brought to a final volume of 200 μL with either complete medium or various concentrations of test compounds, which were diluted in complete medium. Plates were covered with plastic wrap (to reduce evaporation) and placed in a humidified 5% CO2 incubator at 37° C. for 3 days.

[3] abbreviates: CFU-GM, 336 h, CFU-GM, concentration inhibiting colony growth by 50%, linear regression, ~14 days, mean +/- spread.
Setting [4] is: CFU-GM, 336 h, CFU-GM, concentration inhibiting colony growth by 90%, linear regression, ~14 days, mean +/- spread.
The mark [5] stands for this setting: 72 h, Prolif., linear regression, 3 days, mean +/- spread.
Setting [6] is: 72 h, Prolif., concentration inhibiting proliferation by 90%, linear regression, 3 days, mean +/- spread, read-out: IC90.
Where [7] appears, read: Bone marrow cell, Colony-forming Assay, intra-assay variation, equal to the mean of the five determinations.
The mark [8] stands for this setting: Bone marrow cell, Colony-forming Assay, intra-assay variation, individual determinations.

In general, pIC50 refers to −log10 of the IC50, conventionally taken in molar units. High values mean a small IC50, low ones a large IC50. One may read the IC90 as the concentration at which the effect reaches the 90% level. In the case of `Cc1cn([C@H]2C[C@H](N=[N+]=[N-])[C@@H](CO)O2)c(=O)[nH]c1=O` [AZT, 3′-azido-3′-deoxythymidine], the negative logarithm of the IC50 (pIC50) in test [1] (setting [3]) is 4.46; in test [2] (setting [5]) it was 4.77. Also, the IC90 in test [1] (setting [4]) was found to be 387000 nM; in test [2] (72 h), 146000 nM.
As for `Nc1ccn([C@@H]2S[C@H](CO)[C@@H](O)[C@@H]2O)c(=O)n1` [Thio-ara-C, thio-ara-C], the pIC50 was 7.39 in test [1] (setting [3]) and 7.12 in test [2] (setting [5]). Besides, the IC90 in test [1] (setting [4]) was determined as 122 nM; in test [2] (setting [6]), 301 nM.
For the molecule `COc1cccc2c1C(=O)c1c(O)c3c(c(O)c1C2=O)C[C@@](O)(C(=O)CO)C[C@@H]3O[C@H]1C[C@H](N)[C@H](O)[C@H](C)O1` [Doxorubicin, doxorubicin], the pIC50 in test [1] (setting [7]) is 7.54; in test [1] (setting [8]) it was 7.47; in test [1] (setting [3]) it was 7.40. For the same molecule, the IC90 amounted to 69.2 nM in test [1] (setting [7]); 72.4 nM in test [1] (setting [8]); 132 nM in test [1] (setting [4]); 68 nM in test [2] (setting [6]); 70.2 nM in test [2] (Proliferation Assay, intra-assay variation, equal to the mean of the five determinations, read-out: IC90); 71.2 nM in test [2] (Proliferation Assay, intra-assay variation, individual determinations, read-out: IC90).
As for `Nc1ccn([C@@H]2O[C@H](CO)[C@@H](O)C2(F)F)c(=O)n1` [Gemcitabine, gemcitabine], the pIC50 in test [1] (setting [3]) was 8.89; in test [2] (setting [5]), 8.92. Moreover, the IC90 in test [1] (setting [4]) was 4.2 nM; in test [2] (setting [6]), 4.4 nM.
In the case of `CC(=O)O[C@H]1C(=O)[C@@]2(C)[C@H]([C@H](OC(=O)c3ccccc3)[C@]3(O)C[C@H](OC(=O)[C@H](O)[C@@H](NC(=O)c4ccccc4)c4ccccc4)C(C)=C1C3(C)C)[C@]1(OC(C)=O)CO[C@@H]1C[C@@H]2O` [Paclitaxel, paclitaxel], the results for the negative-log IC50 (pIC50) in test [1] (setting [3]) and in test [2] (setting [5]) were 8.47 and 8.72, respectively. For the same molecule, the figures for the concentration for an effect of 90% (IC90) in test [1] (setting [4]) and in test [2] (setting [6]) were 6 nM and 4.9 nM, respectively.
